Assay results: ChEMBL document CHEMBL1155441 (J Med Chem, 2010)

Target: WD repeat-containing protein 5 (Homo sapiens, UniProt P61964)
Experiment: Binding affinity to WDR5 expressed in pLysS cells by optimized fluorescent polarization based competitive binding assay
Format: biochemical

Ki	IC50	Structure (SMILES)
< 0.001 µM	–	CC(=O)N[C@@H](C)C(=O)N[C@@H](CCCNC(=N)N)C(=O)N[C@H](C(=O)N[C@@H](CCCCN)C(=O)N[C@@H](CCC(N)=O)C(=O)N[C@H](C(=O)N[C@@H](C)C(=O)N[C@@H](CCCNC(=N)N)C(=O)N[C@@H](CCCCN)C(=O)N[C@@H](CO)C(N)=O)[C@@H](C)O)[C@@H](C)O
> 50 µM	> 300 µM	CC(=O)N[C@@H](C)C(=O)N[C@@H](CCCNC(=N)N)C(=O)N(C)[C@@H](C)C(N)=O
> 50 µM	> 300 µM	C[C@H](N)C(=O)N[C@@H](CCCN=C(N)N)C(=O)N[C@@H](C)C(N)=O
